Results as given in US5998437A, “Benzimidazole derivatives” (Otsuka Pharmaceutical Co., Ltd., priority 1995, dated 1999).

Legend:
rat A10 cells = assay: Activity for inhibiting proliferation of rat A10 cells ([3H]-thymidine uptake); format: cell-based; conditions: A10, 1% FBS stimulation, 24 hours, read-out: Activity for inhibiting proliferation of rat A10 cells [IC50 (μM)]
Method: (2) Measurement of the Activity for Inhibiting Proliferation of Rat A10 Cells
(§1) Test was conducted by the modified method of N. Morisaki [Atherosclerosis, Vol. 71, (1988), pp. 165-171]. The rat A10 cells (purchased from Dainippon Pharmaceutical Co., Ltd.) were inoculated on a 24 wells immunoplate at a density of 10,000 cells/well, and were cultured in 10% FBS (fetal bovine serum) for 2 days, and in order to introduce the cells into the resting stage, the cells were further cultured in a serum-free medium for 2 days. After that, 1% FBS was added thereto for stimulating the proliferation, of the cells and at the same time, a test compound and 0.5 μCi/well of [^3 H]-thymidine were added. As to the index of synthesized amount of DNA, the quantity of [^3 H]-thymidine being uptaken by the cells was measured at the time of 24 hours after the final cultivation was started.

[1] = system: chronic contactive dermatitis; assay: Activity for inhibiting chronic contactive dermatitis (TNCB, ear pinna); format: in vivo, Balb/c strain male mouse; conditions: for Thickness of ear pinna (×10 μm): control 137.1 ± 6.2, 8 animals; for Inhibition rate (%): ear pinna thickness
Method: (5) Determination of the Activity for Inhibiting Chronic Contactive Dermatitis
The activity for inhibiting chronic contactive dermatitis [J. Dermatol. Sci., Vol. 8, (1994), page 54] which is analogous to atopic dermatitis being reported by Kitagaki, et al. was discussed by using the method as follows. The right-side ear pinna of Balb/c strain male mouse was subjected to antigen sensitization by coating with 20 μl of acetone solution of 1% trinitrochlorobenzene (TNCB). 7 Days after the antigen sensitization, the same right-side pinna was subjected to antigen induction by coating with 20 μl of 1% TNCB acetone solution. The treatment of antigen induction was repeated in every 2 days so as to induced chronic contactive dermatitis. In this test, increase of thickness of the right-side ear pinna was induced by passing into a chronic state of the contactive dermatitis. The test compound was dissolved in acetone-methanol (4:1 by v/v) and 20 μl of this solution was administered by coating on the right-side of ear pinna once a day from 24th day after the antigen induction for 2 weeks. As to the control, the only the solvent was similarly administered. The antigen induction by the test compound during administration period was conducted at 30 minutes before the administration. The thickness of the ear pinna of 14th day after the administration was measured by a dial thickness gauge.

human fibroblast = assay: Activity for inhibiting proliferation of the human fibroblast ([3H]-thymidine uptake); format: cell-based
Method: as §1
(3) Measurement of the Activity for Inhibiting Proliferation of the Human Fibroblast
Similar to the activity for inhibiting proliferation of rat A10 cells as mentioned above, the activity for inhibiting proliferation of the human fibroblast (purchased from Dainippon Pharmaceutical Co., Ltd.) was determined by measuring the uptake amount of [^3 H]-thymidine.

[2] = 0.1% coated once a day for 2 weeks

O=C(Nc1ccc2c(ccn2CCCn2ccnc2)c1)c1nc2ccc(Cl)cc2n1Cc1ccccc1 [Example 3, 1-benzyl-6-chloro-2-{1-[3-(imidazol-1-yl)propyl]indol-5-ylamino-carbonyl}benzimidazole]
IC50 (rat A10 cells): 0.5 µM
Thickness of ear pinna (×10 μm) [1, 2]: 120.4 ± 5.3 ×10 μm
Thickness of ear pinna (×10 μm) ([1]; 0.3% coated once a day for 2 weeks): 105.0 ± 7.2 ×10 μm
Thickness of ear pinna (×10 μm) ([1]; 1.0% coated once a day for 2 weeks): 64.5 ± 1.6 ×10 μm
Inhibition rate (%) [1, 2]: 12%
Inhibition rate (%) ([1]; 0.3% coated once a day for 2 weeks, * p < 0.01 vs control, Dunnett's test): 23%
Inhibition rate (%) ([1]; 1.0% coated once a day for 2 weeks, * p < 0.01 vs control, Dunnett's test): 53%
IC50 (human fibroblast): 0.04 µM
